Converted amounts (≈) assume the structure as drawn. Where two headings read alike, the source gives them in different places.
Legend:
[1] = test system: rice stem borers (Chilo suppressalis Walker); test: Mortality test with rice stem borers by topical application method; format: in vivo; settings: 24 h; for mortality at 0.001 mg: read-out: Pesticidal effect, rice stem borer
Experimental: Mortality test with rice stem borers (Chilo suppressalis Walker) by topical application method
Using a microsyringe, 0.5 μl of the above solution was applied to the thoracic abdominal region of each final-instar larva of rice stem borer (Chilo suppressalis Walker). […] The test larvae were used in groups of 20 individuals each.

[2] = Fish toxicity test with carp; format: in vivo, Cyprinus carpio L; settings: carp, water, 48 hrs., 21±1° C.; read-out: TLm, Carp (48 hrs.)
Experimental: Fish toxicity test with carp (Cyprinus carpio L)
An acetone solution of one of the test compounds as mentioned in Table 10 and Tween-20 (the same surfactant as mentioned hereinbefore) was prepared. To 50 liters of water (30 cm deep) in a glass tank was added the above acetone solution. The mixture was stirred thoroughly to prepare an aqueous solution containing the test compound in a predetermined concentration. This was used as a test water. Five carps (Cyprinus carpio L) with a body weight of about 6 g and a body length of about 6 cm were released into each test water which was maintained at 21±1° C. After 48 hours, the test fish was examined for death. The TLm (median tolerance limit, ppm) was determined. The test water was moderately aerated.

[3] = Toxicity test with water-fleas; format: in vivo, Daphnia pulex; settings: water, 25±1° C., read-out: TLm, Water-flea (6 hrs.)
Experimental: Toxicity test with water-fleas (Daphnia pulex)
An acetone solution of one of the test compounds as mentioned in Table 10 and Tween-20 (the same surfactant as mentioned hereinbefore) was prepared. To 100 ml of water in a high-walled dish (9 cm in diameter, 7 cm deep) was added the above acetone solution. The mixture was stirred thoroughly to prepare an aqueous solution containing the test compound in a predetermined concentration. This was used as a test water. Twenty water-fleas (Daphnia pulex) were released into each test water which was maintained at 25±1° C. After 6 hours, the water-fleas were examined for deaths. The TLm (median tolerance limit, ppm) was determined.

carp and water flea = test: Fish toxicity ranking according to Japanese regulations; parameters: species or system Cyprinus carpio L; Daphnia pulex; settings: from TLm for carp and water flea
Experimental: The above ranking with symbols A, B and C were determined according to Japanese regulations relative to application of agricultural chemicals, and these symbols are defined as follows: […]
A: TLm (48 hrs.) value >10 ppm for carp and TLm (3 hrs.) value >0.5 ppm for water flea, wherein toxicity to fishes is not observed by usual application.
B: TLm (48 hrs.) value 10-0.5 ppm for carp; or TLm (48 hrs.) value >10 ppm for carp and TLm (3 hrs.) value <0.5 ppm for water flea, wherein appreciable toxicity to fishes is not observed by usual application but may be observed when applied to wide area at one time.
C: TLm (48 hrs.) value <0.5 ppm for carp, wherein toxicity to fishes is so strongly observed by usual application that both the application method and application area are strictly restricted.

[4] = test system: brown planthoppers (Nilaparvata lugens Stal); test: Utility Example-1: LC50 on adult brown planthoppers on dipped rice plants; format: in vivo; settings: Nilaparvata lugens, 24 h, 25° C., read-out: Pesticidal activity LC50
Experimental: A 1% emulsifiable concentrate of each test compound as prepared by the procedure described in Formulation Example 2 was diluted with water to prepare a test solution of predetermined concentration.
Rice plants, 4 weeks after sowing (cultivated in a pot 6 cm in diameter, 7 seedlings) were dipped in the above solution and after allowing them to dry in the air, the pot was covered with a wire-mesh cage. Then, 30 adult brown planthoppers (Nilaparvata lugens Stal) were released into the cage and the pot was kept in a constant-temperature chamber at 25° C.

[5] = Fish toxicity safety factor (TLm divided by maximum concentration in cover water); parameters: species or system carp; settings: in vivo, TLm / maximum concentration in cover water at LC50 application (100 l per 10 ares, 5 cm depth)
Experimental: To further confirm the low toxicity to fish and high pesticidal activity of Compounds (1) and (2) according to this invention as evidenced by the fish toxicity tests with carps and the above tests, fish toxicity safety factors were calculated from the fish toxicity and pesticidal test data. These fish toxicity safety factors are indicators of safety to fish inhabiting a paddy field to which Compounds (1) and (2) may be actually applied for pest control purposes.
It is first assumed that such a pesticidal solution would normally be applied at the rate of 100 l per 10 ares of paddy field. It is also assumed that a solution (100 l) corresponding to the LC50 of the compounds would be applied to 10 ares of a paddy field carrying a cover water with a depth of 5 cm above ground surface and that all the solution would then find its way into the cover water. The expected maximum concentration of the compound in the cover water is then calculated. The fish toxicity safety factor of a pesticidal compound is defined as the value obtained by dividing the TLm (ppm) of the particular compound by the maximum concentration of the compound in cover water. The meaning of the value of the fish toxicity safety factor being one (1) is that the maximum concentration of the particular compound in cover water corresponds to the TLm of said compound. It is understood that when the pesticidal compound having a fish toxicity safety factor value of less than one (1) is applied to a paddy field, it has a risk of destroying the fish inhabiting there, and that the higher the safety factor value, the higher is the safety of the compound to fish.
This fish toxicity safety factor will now be explained in further detailed by taking the trans-isomer of Compound (2) of this invention as an example.
On the other hand, the toxicity to fish of this compound is TLm >10 ppm. Therefore, by dividing the TLm (i.e. >10 ppm) by the above cover water maximum concentration (i.e. 0.36 ppm), we obtain a fish toxicity safety factor of >28. Thus, the concentration of the trans-isomerof Compound (2) which kills 50% of pests corresponds to less than 1/28 of the concentration of the same isomer which kills 50% of fish. In other words, this means that the trans-isomer of Compound (2) is extremely safe to fish.

[6] = test system: green rice leafhoppers (Nephotettix cincticeps Uhler); test: Mortality test with green rice leafhoppers by topical application method; settings: Nephotettix cincticeps, in Oryza sativa, 24 h; for mortality at 10 ng: read-out: Pesticidal effect, green rice leafhopper
Experimental: Mortality test with green rice leafhoppers (Nephotettix cincticeps Uhler) by topical application method
Then, the insects were kept at 25° C. with access to rice plant seedlings. The insects were used in groups of 15 individuals each.

[7] = test system: tobacco cutworms (Prodenia litura Fabricius); test: Mortality test with tobacco cutworms by topical application method; format: in vivo; settings: 24 h
Experimental: Mortality test with tobacco cutworms (Prodenia litura Fabricius) by topical application method
Using a microsyringe, 0.5 μl of the above solution was dripped onto the thoracic adbominal region of each of 3-instar tobacco cutworm (Prodenia litura Fabricius) larvae. […] The test larvae were used in groups of 20 individuals each.

[8] = Fish toxicity test with guppies; format: in vivo, Lebistes reticulatus; settings: guppy, water, guppies, 20° C., read-out: TLm (48 hrs.)
Experimental: (§1) Fish toxicity test with guppies (Lebistes reticulatus)
(§2) To 5 liters of water were added 250 mg of Sorpol SM-200 (trademark, Toho Chemical Co., Ltd.) as a surfactant and 2.5 ml of an acetone solution containing one of the test compounds in a predetermined concentration. The mixture was stirred thoroughly to prepare a test water. Ten female guppies (Lebistes reticulatus) of from 3 to 4 months of age were released into the test water which was maintained at 20° C. and the TLm (median tolerance limit, ppm) was determined.

[9] = test system: guppies (Lebistes reticulatus); test: Fish toxicity test with guppies; format: in vivo; settings: Table 1; 48 hrs.
Experimental: as §1, §2

[10] = test system: houseflies (Musca domestica); test: Mortality test with houseflies by topical application method; settings: 24 h; for mortality at 0.001 mg: read-out: Pesticidal effect, housefly
[11] = Fish toxicity test with killifish; format: in vivo, Orizias latipes; settings: water, killifish, 25±1° C., read-out: TLm (48 hrs.)
Experimental: Fish toxicity test with killifish (Orizias latipes)
An acetone solution of one of the test compounds as mentioned in Table 8 was prepared by adding said test compound to 15 ml of acetone. To 10 liters of water was added a predetermined amount of the above acetone solution and the mixture was stirred thoroughly to prepare an aqueous solution containing the test compound in a predetermined concentration. This was used as a test water. After the each test water was moderately aerated, ten killifishes (Orizias latipes) with a body weight of about 0.25 g and a body length of about 2.5 cm were released into said each test water which was maintained at 25±1° C. After 48 hours, the test fish was examined for death. The TLm (median tolerance limit, ppm) was determined.

[12] = read-out: Pesticidal effect, tobacco cutworm

| SMILES | mortality at 1 µg/larva [1] [%] | mortality at 10 µg/larva [1] [%] | LC50 at 48 h [2] [µg/mL] | LC50 at 6 h [3] [µg/mL] | Ranking (carp and water flea) | LC50 [4] [µg/mL] | selectivity ratio [5] | mortality at 0.01 µg/female [6] [%] | mortality at 0.1 µg/female [6] [%] | mortality at 1 µg/female [6] [%] | mortality at 10 ng [6] [%] | mortality at 0.001 mg [1] [%] | mortality at 0.0001 mg [7, 12] [%] | LC50 at 48 h [8] [µg/mL] | Toxicity to fish TLm, guppy [9] [ppm] | mortality at 0.5 µg/female [10] [%] | mortality at 1 µg/female [10] [%] | mortality at 0.001 mg [10] [%] | mortality at 0.0001 mg [7] [%] | LC50 at 48 h [11] [µg/mL] |
| --- | --- | --- | --- | --- | --- | --- | --- | --- | --- | --- | --- | --- | --- | --- | --- | --- | --- | --- | --- | --- |
| CC1(C)[C@H](C(=O)OC(C#N)c2cccc(Oc3ccc(Cl)cc3)c2)[C@@H]1C=C(Cl)Cl (relative stereo) [Compound (G) cis-] | 40 | 100 | 0.013 (≈ 0.0288 µM) | 5 (≈ 11.1 µM) | C (TLm (48 hrs.) value <0.5 ppm for carp, wherein toxicity to fishes is so strongly observed by usual application that both the application method and application area are strictly restricted.) | 620 (≈ 1380 µM) | 0.01 | – | – | – | – | – | – | – | – | – | – | – | – | – |
| CC1(C)C(C=C(Br)Br)C1C(=O)OC(C#N)c1cccc(Oc2ccccc2)c1 (centres unmarked) [Compound (D), Decamethrin] | 100 | 100 | 0.0051 (≈ 0.0101 µM) | – | C (TLm (48 hrs.) value <0.5 ppm for carp, wherein toxicity to fishes is so strongly observed by usual application that both the application method and application area are strictly restricted.) | – | – | 100 | 100 | 100 | 100 | 100 | 100 | < 0.5 | < 0.5 | 100 | 100 | 100 | – | – |
| CC1(C)C(C=C(Cl)Cl)C1C(=O)OCc1cccc(Oc2ccc(Cl)cc2)c1 (stereo not drawn) [Compound (1) cis-/trans- = 20:80] | – | – | 2.6 (≈ 6.11 µM) | > 40 | B (TLm (48 hrs.) value 10-0.5 ppm for carp; or TLm (48 hrs.) value >10 ppm for carp and TLm (3 hrs.) value <0.5 ppm for water flea, wherein appreciable toxicity to fishes is not observed by usual application but may be observed when applied to wide area at one time.) | 520 (≈ 1220 µM) | 2.5 | – | – | – | – | – | – | – | – | – | – | – | – | – |
| CC1(C)C(C=C(Cl)Cl)C1C(=O)OC(C#N)c1cccc(Oc2ccc(Cl)cc2)c1 (stereo not drawn) [Compound (G) cis-/trans- = 50:50] | 90 | 100 | 0.04 (≈ 0.0887 µM) | – | C (TLm (48 hrs.) value <0.5 ppm for carp, wherein toxicity to fishes is so strongly observed by usual application that both the application method and application area are strictly restricted.) | 450 (≈ 998 µM) | 0.04 | 100 | 100 | 100 | 100 | 90 | 65 | < 1 | < 1.0 | 100 | 100 | 100 | 65 | 0.15 (≈ 0.333 µM) |
| CC1(C)[C@H](C=C(Cl)Cl)[C@H]1C(=O)OC(C#N)c1cccc(Oc2ccc(Cl)cc2)c1 (relative stereo) [Compound (G) trans-] | 85 | 100 | 0.09 (≈ 0.2 µM) | 1.7 (≈ 3.77 µM) | C (TLm (48 hrs.) value <0.5 ppm for carp, wherein toxicity to fishes is so strongly observed by usual application that both the application method and application area are strictly restricted.) | 380 (≈ 843 µM) | 0.12 | – | – | – | – | – | – | – | – | – | – | – | – | – |
